{
  "source": "paper PMC5429603",
  "about": "“Discovery and characterization of verinurad, a potent and specific inhibitor of URAT1 for the treatment of hyperuricemia and gout” (Scientific Reports, 2017)",
  "key": {"human URAT1 [1]": {"target": "T1, human URAT1 (Homo sapiens, UniProt Q96S37)", "T1 sequence (Q96S37 1-553)": "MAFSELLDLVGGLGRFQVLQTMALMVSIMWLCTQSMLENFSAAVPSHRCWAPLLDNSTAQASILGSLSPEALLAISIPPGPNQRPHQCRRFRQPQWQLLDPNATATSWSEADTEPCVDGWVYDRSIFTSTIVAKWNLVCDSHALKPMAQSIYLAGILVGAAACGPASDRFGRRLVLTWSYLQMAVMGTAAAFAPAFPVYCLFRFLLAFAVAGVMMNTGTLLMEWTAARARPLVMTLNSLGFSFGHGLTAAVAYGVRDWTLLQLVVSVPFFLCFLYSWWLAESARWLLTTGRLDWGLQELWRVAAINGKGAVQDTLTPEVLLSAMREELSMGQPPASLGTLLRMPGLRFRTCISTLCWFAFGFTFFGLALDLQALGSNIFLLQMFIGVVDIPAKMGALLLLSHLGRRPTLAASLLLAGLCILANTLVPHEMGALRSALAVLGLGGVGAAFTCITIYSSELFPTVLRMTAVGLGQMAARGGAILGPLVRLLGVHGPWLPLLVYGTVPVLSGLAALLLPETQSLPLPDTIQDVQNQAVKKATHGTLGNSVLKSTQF", "test": "URAT1 binding assay with 3H-verinurad, human URAT1 membranes", "conditions": "for mode of inhibition of 3H-verinurad binding: human URAT1 membranes", "procedure": "Membranes were prepared from cells transfected on the previous day with URAT1 expression constructs. Cells (5–10 × 10^8) were harvested in 1 ml ice-cold binding buffer (25 mM HEPES pH 7.3, 125 mM sodium gluconate) containing complete, EDTA-free protease inhibitor cocktail (Sigma). Cells were lysed with 100 strokes in a 2 ml dounce homogenizer using a tight-fitting “B” stem. Lysates were transferred to 1.5 mL Eppendorf tubes and centrifuged at 250 rcf for 5 minutes at 2 °C, and supernatants were transferred to fresh tubes and centrifuged again at 18,000 rcf for 20 minutes at 2 °C. The pellets (membrane fractions) were resuspended in 1 ml of ice-cold binding buffer containing protease inhibitors and frozen at −80 °C. Protein was measured using the Bio-Rad protein assay dye reagent concentrate.\nSamples were then rapidly filtered through 25 mm glass fiber/1.2 µM PES 96-well filter plates (Corning FiltrEX 3510), and washed once with 200 µl ice-cold binding buffer. The plates were then subjected to scintillation counting. All samples were assayed in triplicate.\nGraphPad Prism software was used for non-linear regression and statistical analyses. […] For kinetic measurements (K m and B max values), the “one site – specific binding” equation was used, after subtracting transport or binding measurements from control transfected cells. Statistical significance was assessed using Student’s unpaired t-tests."}, "human URAT1 h-F449Y": {"target": "T2, human URAT1 h-F449Y (Homo sapiens, UniProt Q96S37, F449Y)", "T2 construct": "expressed in transfected cells; host or cells: HEK-293T", "T2 sequence (Q96S37 1-553 F449Y)": "T1 sequence (Q96S37 1-553) with F449Y", "test": "URAT1 activity assay, h-F449Y", "type": "cell-based", "from_the_text": "(§1) Human URAT1 (GenBank BC053348.1, Homo sapiens SLC22A12), rat URAT1 (NCBI NM_001034943.1, Rattus norvegicus Slc22a12) and human OAT4 (NCBI NM_018484.2, Homo sapiens SLC22A11) genes were purchased from Origene Technologies, Inc. and subcloned into pCMV6/neo using NotI. Where indicated, controls transfections used pCMV6/neo. Mutants were produced by site-directed mutagenesis using the QuikChange Lightning Multi Site-Directed Mutagenesis Kit (Agilent Technologies). […] Mutagenic primer sequences are provided in ref. [15] and mutagenic primer sequences for previously unreported mutants shown in Supplementary Table 1. All constructs used in this study were untagged. Human OAT1 was purchased from Fisher Scientific (catalog # MHS1010–7508183 in pSPORT6, NCBI NM_153276.2, Homo sapiens SLC22A6).\n(§2) HEK-293T cells were maintained in DMEM/high glucose/L-glutamine/HEPES supplemented with 1 mM sodium pyruvate (Life Technologies) and 10% FBS (PAA Laboratories) at 37 °C in 5% CO2. To express URAT1, OAT4 or OAT1, plasmids were reverse transfected into HEK-293T cells. DNA (10 µg) was mixed with 30 µl of DreamFect Gold (Boca Scientific) in 2 ml OptiMem (Life Technologies). After 20 minutes, 18 ml of media containing 2 × 10^7 cells in suspension was added and mixed, and 200 µl per well were plated onto white clear-bottomed poly-D-lysine coated 96-well plates (BD Biosciences). The cells were assayed the following day.\n(§3) URAT1 and OAT4 activity assays were performed in assay buffer consisting of 25 mM MES pH 5.5 (from a 1 M MES solution [Sigma] adjusted to pH 5.5 with sodium hydroxide), 125 mM sodium gluconate, 4.8 mM potassium gluconate, 1.2 mM monobasic potassium phosphate, 1.2 mM magnesium sulfate, 1.3 mM calcium gluconate and 5.6 mM glucose. URAT1 inhibitors were serially diluted into assay buffer and added to the cells for 5 minutes prior to addition of substrate. URAT1-expressing cells were incubated with 100 µM ^14C-uric acid for 10 minutes and OAT4-expressing cells were incubated with 20 µM carboxyfluorescein (Life Technologies, Inc.) for 5 minutes. Cells were then washed three times in 25 mM MES pH 5.5/125 mM sodium gluconate, and solubilized in Ultima Gold (Perkin Elmer) prior to liquid scintillation counting. Each treatment was measured in triplicate."}, "human URAT1 h-R477K": {"target": "T3, human URAT1 h-R477K (Homo sapiens, UniProt Q96S37, R477K)", "T3 construct": "expressed in transfected cells; host or cells: HEK-293T", "T3 sequence (Q96S37 1-553 R477K)": "T1 sequence (Q96S37 1-553) with R477K", "test": "URAT1 activity assay, h-R477K", "type": "cell-based", "from_the_text": "as §1, §2, §3"}, "human URAT1 h-F241Y": {"target": "T4, human URAT1 h-F241Y (Homo sapiens, UniProt Q96S37, F241Y)", "T4 construct": "expressed in transfected cells; host or cells: HEK-293T", "T4 sequence (Q96S37 1-553 F241Y)": "T1 sequence (Q96S37 1-553) with F241Y", "test": "URAT1 activity assay, h-F241Y", "type": "cell-based", "from_the_text": "as §1, §2, §3"}, "human URAT1 [2]": {"target": "T1, human URAT1", "test": "URAT1 activity assay (14C-uric acid transport), human URAT1", "type": "cell-based", "set-up": "host or cells: HEK-293T", "conditions": "human URAT1 wild type in HEK-293T; 100 µM 14C-uric acid, pH 5.5; read-out: IC50, inhibition of transport activity", "method": "as §2, §3"}, "human URAT1 [3]": {"target": "T1, human URAT1", "set-up": "host or cells: HEK-293T; method as in Tan et al., 2016", "conditions": "cited from earlier work"}, "rat URAT1": {"target": "T5, rat URAT1 (Rattus norvegicus, UniProt Q3ZAV1)", "T5 construct": "host or cells: HEK-293T", "T5 sequence (Q3ZAV1 1-553)": "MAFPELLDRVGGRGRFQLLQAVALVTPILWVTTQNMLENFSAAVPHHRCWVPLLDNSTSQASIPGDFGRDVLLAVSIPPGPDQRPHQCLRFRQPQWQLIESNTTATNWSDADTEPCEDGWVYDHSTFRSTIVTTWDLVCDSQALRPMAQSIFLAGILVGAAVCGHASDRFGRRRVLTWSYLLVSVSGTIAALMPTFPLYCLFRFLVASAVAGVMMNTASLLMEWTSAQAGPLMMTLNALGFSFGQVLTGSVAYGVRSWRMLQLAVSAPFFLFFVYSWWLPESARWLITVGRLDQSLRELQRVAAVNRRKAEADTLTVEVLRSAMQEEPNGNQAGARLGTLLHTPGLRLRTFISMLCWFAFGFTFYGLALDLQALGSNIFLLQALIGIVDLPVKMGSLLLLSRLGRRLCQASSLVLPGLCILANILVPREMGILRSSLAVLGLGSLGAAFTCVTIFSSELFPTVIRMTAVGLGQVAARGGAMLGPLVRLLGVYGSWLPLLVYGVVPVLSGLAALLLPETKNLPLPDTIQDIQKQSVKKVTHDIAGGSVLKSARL", "set-up": "method as in Tan et al., 2016", "conditions": "cited from earlier work"}, "rat URAT1-Y365F [4]": {"target": "T6, rat URAT1-Y365F (Rattus norvegicus, UniProt Q3ZAV1, Y365F)", "T6 construct": "expressed in transfected cells; host or cells: HEK-293T", "T6 sequence (Q3ZAV1 1-553 Y365F)": "T5 sequence (Q3ZAV1 1-553) with Y365F", "set-up": "method as in Tan et al., 2016", "conditions": "ref Tan et al., 2016; cited from earlier work"}, "human URAT1 [5]": {"target": "T1, human URAT1", "test": "Uric acid transport kinetics, human URAT1", "type": "cell-based", "set-up": "host or cells: HEK-293T", "conditions": "human URAT1 vs rat URAT1", "method": "as §2\nas §3, with “Cells were then washed three times in 25 mM MES pH 5.5/125 mM sodium gluconate, and solubilized in Ultima Gold (Perkin Elmer) prior to liquid scintillation counting.” left out"}, "Rat URAT1-N35S/Y365F": {"target": "T7, Rat URAT1-N35S/Y365F (Rattus norvegicus, UniProt Q3ZAV1, N35S/Y365F)", "T7 construct": "expressed in transfected cells; host or cells: HEK-293T", "T7 sequence (Q3ZAV1 whole entry N35S/Y365F)": "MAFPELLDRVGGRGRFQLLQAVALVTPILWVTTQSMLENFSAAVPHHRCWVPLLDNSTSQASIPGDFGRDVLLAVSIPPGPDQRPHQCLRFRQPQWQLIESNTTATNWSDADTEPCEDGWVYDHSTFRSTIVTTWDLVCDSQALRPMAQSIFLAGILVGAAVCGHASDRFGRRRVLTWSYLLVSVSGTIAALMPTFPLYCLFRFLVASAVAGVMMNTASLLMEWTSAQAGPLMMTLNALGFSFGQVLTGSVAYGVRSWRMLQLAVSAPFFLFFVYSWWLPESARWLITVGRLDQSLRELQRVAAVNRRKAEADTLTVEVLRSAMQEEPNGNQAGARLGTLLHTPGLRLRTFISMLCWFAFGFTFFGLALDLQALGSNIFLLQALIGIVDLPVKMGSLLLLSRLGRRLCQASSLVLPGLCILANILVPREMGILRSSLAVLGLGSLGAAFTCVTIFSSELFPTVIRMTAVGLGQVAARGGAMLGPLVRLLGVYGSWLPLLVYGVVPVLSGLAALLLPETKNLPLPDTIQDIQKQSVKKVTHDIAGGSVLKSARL", "test": "Uric acid transport kinetics, rat URAT1-N35S/Y365F", "type": "cell-based", "method": "as §2\nas §3, with “Cells were then washed three times in 25 mM MES pH 5.5/125 mM sodium gluconate, and solubilized in Ultima Gold (Perkin Elmer) prior to liquid scintillation counting.” left out"}, "Rat URAT1-N35S": {"target": "T8, Rat URAT1-N35S (Rattus norvegicus, UniProt Q3ZAV1, N35S)", "T8 construct": "expressed in transfected cells; host or cells: HEK-293T", "T8 sequence (Q3ZAV1 whole entry N35S)": "as the sequence (Q3ZAV1 whole entry N35S/Y365F) above, with F365Y counted along it", "test": "Uric acid transport kinetics, rat URAT1-N35S", "type": "cell-based"}, "rat URAT1-Y365F [6]": {"target": "T6, rat URAT1-Y365F", "test": "Uric acid transport kinetics, rat URAT1-Y365F", "type": "cell-based"}, "[7]": {"conditions": "ref Tan et al., 2016, listed as urate"}},
  "note": "Residue numbers refer to the chain shown, from its start. Read-outs that look alike come from different tables or passages of the source.",
  "data": [
    {"smiles": "CCCN(CCC)S(=O)(=O)c1ccc(C(=O)O)cc1", "note": "[probenecid]", "values": [
      {"measurement": "mode of inhibition of 3H-verinurad binding", "setting": "human URAT1 [1]", "result": "competitive mode of inhibition"}
    ]},
    {"smiles": "O=C1C(CC[S+]([O-])c2ccccc2)C(=O)N(c2ccccc2)N1c1ccccc1", "note": "(centres unmarked) [sulfinpyrazone, reference compound]", "values": [
      {"measurement": "fold reduced affinity compared to human URAT1", "setting": "human URAT1 h-F449Y; h-F449Y", "result": 3, "unit": "fold"},
      {"measurement": "IC50", "setting": "human URAT1 h-F449Y; h-F449Y binding site point mutant", "result": 9.7, "unit": "µM"},
      {"measurement": "fold increased affinity compared to human URAT1", "setting": "human URAT1 h-R477K; h-R477K", "result": 2, "unit": "fold"},
      {"measurement": "IC50", "setting": "human URAT1 h-R477K; h-R477K binding site point mutant", "result": 2, "unit": "µM"},
      {"measurement": "fold reduced affinity compared to human URAT1", "setting": "human URAT1 h-F241Y; h-F241Y", "result": 7, "unit": "fold"},
      {"measurement": "IC50", "setting": "human URAT1 h-F241Y; h-F241Y binding site point mutant", "result": 23, "unit": "µM"},
      {"measurement": "IC50", "setting": "human URAT1 [2]", "result": 3.4, "unit": "µM"},
      {"measurement": "IC50", "setting": "human URAT1 [1]", "result": 8.6, "unit": "µM"},
      {"measurement": "Ki", "setting": "human URAT1 [1]", "result": 52, "unit": "µM"},
      {"measurement": "mode of inhibition of 3H-verinurad binding", "setting": "human URAT1 [1]", "result": "competitive mode of inhibition"}
    ]},
    {"smiles": "CCc1oc2ccccc2c1C(=O)c1cc(Br)c(O)c(Br)c1", "note": "[benzbromarone, Benzbromarone]", "values": [
      {"measurement": "mode of inhibition of 3H-verinurad binding", "setting": "human URAT1 [1]", "result": "competitive mode of inhibition"}
    ]},
    {"smiles": "O=c1[nH]c(=O)c2[nH]c(=O)[nH]c2[nH]1", "note": "[uric acid]", "values": [
      {"measurement": "K m (µM), uric acid transport affinity", "setting": "human URAT1 [3]; [7]", "result": 122, "unit": "µM"},
      {"measurement": "K m (µM), uric acid transport affinity", "setting": "human URAT1 [3]; ref Tan et al., 2016", "result": "122 ± 3", "unit": "µM"},
      {"measurement": "K m (µM), uric acid transport affinity", "setting": "rat URAT1; [7]", "result": 857, "unit": "µM"},
      {"measurement": "K m (µM), uric acid transport affinity", "setting": "rat URAT1; ref Tan et al., 2016", "result": "857 ± 6", "unit": "µM"},
      {"measurement": "K m (µM), uric acid transport affinity", "setting": "rat URAT1-Y365F [4]", "result": "560 ± 28", "unit": "µM"},
      {"measurement": "fold higher affinity for urate of human URAT1 relative to rat URAT1", "setting": "human URAT1 [5]", "result": 7, "unit": "fold"},
      {"measurement": "K m (µM), uric acid transport affinity", "setting": "Rat URAT1-N35S/Y365F; Rat URAT1-N35S/Y365F", "result": "222 ± 16", "unit": "µM"},
      {"measurement": "fold increase in urate affinity relative to rat URAT1", "setting": "Rat URAT1-N35S/Y365F; rat URAT1-N35S/Y365F", "result": "~4", "unit": "fold"},
      {"measurement": "K m (µM), uric acid transport affinity", "setting": "Rat URAT1-N35S; Rat URAT1-N35S", "result": "697 ± 93", "unit": "µM"},
      {"measurement": "urate affinity phenotype relative to rat URAT1", "setting": "Rat URAT1-N35S; rat URAT1-N35S", "result": "no phenotype"},
      {"measurement": "fold increase in urate affinity over rat URAT1", "setting": "rat URAT1-Y365F [6]", "result": 1.5, "unit": "fold"}
    ]}
  ]
}
